Source: patent publication US20150148369A1, “CHEMICAL SUPPRESSORS OF NEUROTOXICITY IN SYNUCLEINOPATHIC DISEASES” (priority 2012, published 2015)
Where “and” joins values, the source holds several entries; their conditions need not be identical. Identical values can stand only once. Entries after “also recorded” stand apart in the source; their conditions may differ. Like-named read-outs stand apart in the source and are kept apart here.

Experiments:
aSYN expressing larvae = assay: Larval survival assay in liquid culture; format: in vivo, Drosophila; conditions: for survival: after 4 days in liquid culture, DMSO 14%, untreated 13%
Description: (§1) Embryos are collected from transgenic strains and dispensed in 96-well plates containing liquid media culture (200 uL/well). Stock compounds (15, 15×10^−2, 15×10^−5 mM) prepared in DMSO, are diluted 1/10 with media, and then 1 uL of this working reagent is dispensed in culture wells. Percentage survival of mutant and negative control larvae are recorded on day 4 following compound administration. Data are plotted graphically.
as §1, with “Embryos were” for “Embryos are”, “DMSO, were” for “DMSO, are”, “reagent was” for “reagent is”, “Data were” for “Data are”, “plotted graphically with Prism software.” for “plotted graphically.”

[1] = tested on: primary neurons expressing human mutant aSYN A30P; assay: Primary neuronal culture, neurite morphology (Cellomics ArrayScan); format: cell-based, Drosophila; conditions: for neurite length and branching in images vs DMSO controls: 60 nM, FIG. 1B, 1C
Description: Primary cell cultures are prepared from mid-gastrula stage embryos as described previously (Sepp et al., 2008). Briefly, embryos are collected on agar media plates and dechorionated in 50% bleach for 4 min., followed by rinsing with sterile distilled water. Embryos are homogenized in Shields and Sang M3 media (Sigma) in a Dounce homogenizer, and debris are pelleted by centrifugation at 40 g for 10 min and then 5 min. Neuroblasts are pelleted by centrifugation at 380G for 10 min. Cells are resuspended at 1×10^6 cells/mL in Shields and Sang M3 media supplemented with 10 U/mL penicillin, 10 ug/mL streptomycin, and 200 ng/mL insulin, and plated on 384-well plates (Corning) at 50 uL/well. Cells are incubated at 21° C. Compound is applied 24 hrs after cells are plated. Stock compounds (15 mM) and log dilutions (10^−1, 10^−2, 10^−3, 10^−4, and 10^−5) are prepared in DMSO, then each stock is further diluted 1/10 with media, and 1 uL of this working reagent is applied to culture wells. Cultures are matured for 7 days. Cultures are fixed and stained as described previously (Halter et al., 1995), using pan-neuronal marker anti-elav (1:10, Developmental Studies Hybridoma Bank), and anti-human aSYN (1:1000, Abeam), and dopaminergic neuron marker anti-tyrosine hydroxylase (1:1000, Millipore). Cultures are imaged on a Cellomics robotic fluorescence microscope, and morphologies are quantified with Cellomics ArrayScan algorithms and statistically processed with Prism software.
Primary cell cultures were prepared from mid-gastrula stage embryos as described previously (Sepp et al., 2008). Briefly, embryos are collected on agar media plates and dechorionated in 50% bleach for 4 min., followed by rinsing with sterile distilled water. Embryos were homogenized in Shields and Sang M3 media (Sigma) in a Dounce homogenizer, and debris pelleted by centrifugation at 40 g for 10 min and then 5 min. Neuroblasts were pelleted by centrifugation at 380G for 10 min. Cells were resuspended at 1×10^6 cells/mL in Shields and Sang M3 media supplemented with 10 U/mL penicillin, 10 ug/mL streptomycin, and 200 ng/mL insulin, and plated on 384-well plates (Corning) at 50 uL/well. Cells were incubated at 21° C. Compound was applied 24 hrs after cells were plated. Stock compounds (15 mM) and log dilutions (10^−1, 10^−2, 10^−3, 10^−4, and 10^−5) were prepared in DMSO, then each stock was further diluted 1/10 with media, and 1 uL of this working reagent was applied to culture wells. Cultures were matured for 7 days. Cultures were fixed and stained as described previously (Halter et al., 1995), using pan-neuronal marker anti-GFP (1:1000, Life Technologies), and anti-human aSYN (1:1000, Abcam). Cultures were imaged on a Cellomics robotic fluorescence microscope, and morphologies are quantified with Cellomics ArrayScan algorithms and statistically processed with Prism software.

[2] = tested on: human mutant aSYN (AAV1/2 A53T α-Synuclein); assay: Quantitative immunoblot of aSYN in AAV-aSYN rat model of Parkinson's disease; format: in vivo; conditions: 37.4 ug/h into third ventricle; for aSYN protein levels in postmortem rat brain immunoblots: TPT vs vehicle
Text: An AAV 1/2-aSYN A53T vector delivery-based over-expression of aSYN in the rat substantia nigra was chosen to model PD synucleinopathy, since it replicates progressive nigrostriatal degeneration and basal ganglia-based motor features of PD better than existing stable transgenic models. Furthermore, time of symptom onset is far more predictable, thus reducing experimental noise. Viral vectors will be delivered as using stereotactic injection. Briefly, 20 Sprague Dawley rats (280 g, Charles River) were injected with AAV 1/2-aSYN A53T to the experimental hemisphere (right) and AAV1/2-GFP to the control hemisphere (left) using standard stereotaxic procedures and isoflurane/oxygen anesthesia. Vector (2 μL) was delivered by microinjector (Stoelting, Kiel, Wis.) at 0.2 μL/min with coordinates from Bregma: AP, −5.2 mm; ML, −2.0 mm; DV, −7.5 mm. Viral stock concentrations for both AAV1/2 GFP and AAV1/2-aSYN A53T were 1.7×10^12 gp/mL. Animals were housed in pairs at 20° C. with a 12 hr light/dark cycle with food and water ad libitum. Animals recovered were maintained with regular care for 3 weeks as viral gene expression of aSYN built to emerging pathological levels as characterized previously.
On Day 1 of Week 3, rats were fitted with osmotic mini-pumps to administer TPT to the third ventricle. Intracerebral administration was chosen to maximize the amount of drug given to the brain and minimize side effects in peripheral tissues. Using standard stereotaxic procedures, a 22-gauge guide cannula (Plastics One, Roanoake, Va.) was placed into the third ventricle (AP, −1.3 mm, ML, +0.0 mm; DV −4.6 mm with respect to bregma) of isoflurane/oxygen anesthetized rats, and anchored with dental acrylic. […]
Standard Western blot techniques are used on dissected postmortem tissues to determine if aSYN levels decrease in response to TPT treatment. […] Blots are imaged on an Odyssey Quantitative Fluorescence Imaging System. Two-tailed student's t-test is used Western blot quantifications.

[3] = Pharmacokinetic analysis: mass-spec of TPT in postmortem rat brain; format: in vivo; conditions: osmotic pump into third ventricle, 37.4 ug/h
Text: On Day 1 of Week 3, rats were fitted with osmotic mini-pumps to administer TPT to the third ventricle. Intracerebral administration was chosen to maximize the amount of drug given to the brain and minimize side effects in peripheral tissues. Using standard stereotaxic procedures, a 22-gauge guide cannula (Plastics One, Roanoake, Va.) was placed into the third ventricle (AP, −1.3 mm, ML, +0.0 mm; DV −4.6 mm with respect to bregma) of isoflurane/oxygen anesthetized rats, and anchored with dental acrylic. Rats were bilaterally infused with TPT or vehicle using a mini-osmotic pulp (Alzet model 2ML2 pump, flow rate 5.0 uL/hr, Durect Corp. Cupertino) to the third ventricle, which was delivered for 2 weeks. The pumps were filled with 16.34 mM topotecan (TPT) (CPT06, Molcan Corporation) in 50 mM tartaric acid with 0.9% saline (delivered at 37.4 μg/h), or vehicle control alone. Upon cessation of drug on Day 7 of Week 4 or at some other time point, rats were sacrificed by an overdose of pentobarbital (1.0 mL of 240 mg/mL, i.p.) and exsanguinated by transcardial saline perfusion followed by 4% paraformaldehyde.
Postmortem brain samples were subjected to standard quadrupole mass […] analysis to determine brain penetration of TPT into tissue samples.

[4] = tested on: polyglutamine-expanded Huntingtin protein; conditions: cited from earlier work; for polyglutamine protein aggregation: Huntington's disease (HD) model
gap junction = conditions: cited from earlier work
[5] = in vivo, cited from earlier work
HSD1 = HSD1 (Mus musculus, UniProt P50172); conditions: i.p. 20 mg/kg, every other day for 2 months; cited from earlier work
Sequence of HSD1 (P50172 whole entry): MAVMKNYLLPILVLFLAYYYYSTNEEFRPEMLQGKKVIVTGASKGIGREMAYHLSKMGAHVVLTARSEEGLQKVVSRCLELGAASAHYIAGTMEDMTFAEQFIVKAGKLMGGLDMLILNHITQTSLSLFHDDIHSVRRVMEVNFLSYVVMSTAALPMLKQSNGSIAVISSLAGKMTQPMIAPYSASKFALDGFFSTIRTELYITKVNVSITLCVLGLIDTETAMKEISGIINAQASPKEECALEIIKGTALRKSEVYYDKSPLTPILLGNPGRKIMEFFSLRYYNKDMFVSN

C[C@@H](CN1CC(=O)NC(=O)C1)N1CC(=O)NC(=O)C1 [dexrazoxane, Dexrazoxane]
survival (aSYN expressing larvae; 'med' dose 0.15 uM, n=9): 75%
survival compared to DMSO vehicle-treated controls (aSYN expressing larvae; medium dose 0.15 uM): improved survival

CC[C@@]1(O)C(=O)OCc2c1cc1n(c2=O)Cc2cc3c(CN(C)C)c(O)ccc3nc2-1 [topotecan]
neurite outgrowth vs DMSO control ([1]; 30 nM, FIG. 1D): improved neurite outgrowth
neurite length and branching in images vs DMSO controls [1]: longer neurites and reduced neuritic branching
aSYN protein levels in postmortem rat brain immunoblots [2]: reduced aSYN protein levels; also recorded: inverse relationship
aSYN protein levels in postmortem rat brain immunoblots ([2]; listed as TPT): reduced in the TPT treatment with a dose-dependent trend
reduction in aSYN normalized to beta-Actin vs vehicle control ([2]; three rats, average 2725 ng TPT/g tissue): ~2 fold
average TPT brain level of three rats [3]: 2725 ng TPT/g tissue
TPT level in cortex, single rats ([3]; n=3 rats, listed as TPT): 6809 ng TPT/g tissue and 967 ng TPT/g tissue and 399 ng TPT/g tissue

CC1(C)[C@@H](O)CC[C@]2(C)[C@H]3C(=O)C=C4[C@@H]5C[C@@](C)(C(=O)O)CC[C@]5(C)CC[C@@]4(C)[C@]3(C)CC[C@@H]12 [18β-glycyrrhetinic acid]
polyglutamine protein aggregation [4]: protect against polyglutamine protein aggregation
gap junction blocking activity (gap junction): have gap junction blocking activity
crossing of the blood-brain-barrier [5]: do not cross the blood-brain-barrier at high enough concentrations

CC[C@@]1(O)C(=O)OCc2c1cc1n(c2=O)Cc2cc3cc(O)ccc3nc2-1 [camptothecin-OH, 10-hydroxy-camptothecin]
neurite morphology profiles (image features) vs DMSO negative control ([1]; 30 nM): improved neurite morphology profiles
neurite outgrowth vs DMSO control ([1]; 30 nM, FIG. 1D): improved neurite outgrowth
total neurite length per well ([1]; 30 nM, Mean±SEM, n=4, DMSO vehicle 15240±799.8 (n=18), P<0.05, FIG. 1D): 20170±1430 um
survival (aSYN expressing larvae; 'hi' dose 15 uM, n=5): 100%
survival compared to DMSO vehicle-treated controls (aSYN expressing larvae; high dose 15 uM): improved survival

CC1(C)[C@@H](OC(=O)CCC(=O)O)CC[C@]2(C)[C@H]3C(=O)C=C4[C@@H]5C[C@@](C)(C(=O)O)CC[C@]5(C)CC[C@@]4(C)[C@]3(C)CC[C@@H]12 [carbenoxolone, (3β)-3-[(3-carboxy-propanoyl)oxy]-11-oxoolean-12-en-30-oic acid]
neurite morphology profiles (image features) vs DMSO negative control ([1]; 30 nM): improved neurite morphology profiles
excessive branching vs DMSO vehicle controls ([1]; 30 nM, FIG. 1E): reduces the excessive branching phenotype; also recorded: reduced excessive branching
total branches per well ([1]; 30 nM, Mean±SEM, n=4, DMSO vehicle 4.416±0.2622 (n=16), P<0.05, FIG. 1E): 3.198±0.1825
neurite length and branching in images vs DMSO controls [1]: longer neurites and reduced neuritic branching
polyglutamine protein aggregation [4]: protect against polyglutamine protein aggregation
lifespan and motor control ([4]; early dosing): extend Drosophila HD model lifespan and improves motor control
rescue of toxicity of polyglutamine-expanded Huntingtin protein ([4]; in vivo, Drosophila): in vivo rescue of toxicity
gap junction blocking activity (gap junction): have gap junction blocking activity
inhibition of target enzyme HSD1 (HSD1): effective at inhibiting the target enzyme HSD1
crossing of the blood-brain-barrier ([5]; concentrations needed for gap junction block): do not cross the blood-brain-barrier at high enough concentrations
